Biological target: T1, Bromodomain-containing protein 9 [133-239] (Homo sapiens, UniProt Q9H8M2)
T1 construct: 133-239
T1 sequence (Q9H8M2 whole entry): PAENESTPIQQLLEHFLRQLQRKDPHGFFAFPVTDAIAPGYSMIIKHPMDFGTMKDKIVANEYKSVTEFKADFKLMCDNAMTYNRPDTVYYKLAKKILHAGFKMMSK
Assay: BRD9 Bromodomain TR-FRET Competition Binding Assay
Protocol: A mixture of biotinylated-ligand and SureLight Allophycocyanin-Streptavidin (APC-SA, PerkinElmer AD0201) in 50 mM HEPES (pH 7.4), 50 mM NaCl, 1 mM TCEP (pH 7), 0.01% (v/v) Tween-20, 0.01% (w/v) bovine serum albumin was added to a white 384-well PerkinElmer Proxiplate Plus plate. DMSO or 3-fold serially diluted compounds were then added to the Proxiplate followed by addition of Flag-BRD9. After a 10 minute incubation at room temperature, Eu-W1024 anti-FLAG (PerkinElmer, AD0273) was added.

## CCS(=O)(=O)N(C)Cc1c(OC)cc(-c2cn(C)c(=O)c3cnccc23)cc1OC [US11773085, Compound B35]
  IC50: < 10 nM

## COc1cc(-c2cn(C)c(=O)c3cnccc23)cc(OC)c1CN(C)C(=O)CCCCCOc1cccc2c1C(=O)N(C1CCC(=O)NC1=O)C2=O (configuration not stated) [US11773085, Compound D4]
  IC50: < 10 nM
